“And” between values parts separate entries of the source, which are not always exact repeats. Equal entries are not always repeated.
Key:
[1] = test system: alkaline phosphatase activity in T47D cells; assay: T47D cytosol alkaline phosphatase assay (progestin/agonist mode); type: cell-based; settings: Homo sapiens, 24 hours treatment; for Emax: agonist mode, read-out: % Efficacy; for EC50: T47D, 24 h, test compounds
Protocol: 5-(4,4-dimethyl-2-thioxo-1,4-dihydro-2H-3,1-benzoxazin-6-yl)-1-methyl-1H-pyrrole-2-carbothioamide (1) and 5-(4,4-dimethyl-2-oxo-1,4-dihydro-2H-3,1-benzoxazin-6-yl)-1-methyl-1H-pyrrole-2-carbothioamide (2) were tested in a T47D cytosol alkaline phosphatase assay (Table 1). The purpose of this functional assay was to identify progestins or antiprogestins by determining the compound's effect on alkaline phosphatase activity in T47D cells.
(i) Culture Medium: • DMEM:F12 (1:1) (GIBCO, BRL) supplemented with 5% (v/v) charcoal stripped fetal bovine serum (not heat-inactivated), 100 U/mL penicillin, 100 μg/mL streptomycin, and 2 mM the GlutaMax™ reagent (GIBCO, BRL).
(ii) Alkaline Phosphatase Assay Buffer: • I. 0.1 M Tris-HCl, pH 9.8, containing 0.2% the Triton™ reagent X-100 • II. 0.1 M Tris-HCl, pH 9.8 containing 4 mM p-nitrophenyl phosphate (Sigma).
(iii) Cell Culture and Treatment: • Frozen T47D cells were thawed in a 37° C. water bath and diluted to 280,000 cells/mL in culture medium. To each well in a 96-well plate (Falcon, Becton Dickinson Labware), 180 μL of diluted cell suspension was added. Twenty μL of reference or test compounds diluted in the culture medium was then added to each well. When testing for progestin antagonist activity, reference antiprogestins or test compounds were added in the presence of 1 nM progesterone. The cells were incubated at 37° C. in a 5% CO2/humidified atmosphere for 24 hours.
(iv) Alkaline Phosphatase Enzyme Assay: • At the end of treatment, the medium was removed from the plate and 50 μL of assay buffer I was added to each well. The plates were shaken in a titer plate shaker for 15 minutes. Then 150 μL of assay buffer II was added to each well. Optical density measurements were taken at 5 minute intervals for 30 minutes at a test wavelength of 405 nm.
(v) Analysis of Results: • Analysis of dose-response data: For reference and test compounds, a dose response curve is generated for dose (X-axis) vs. the rate of enzyme reaction (slope) (Y-axis). Square root-transformed data are used for analysis of variance and nonlinear dose response curve fitting for both agonist and antagonist modes. Huber weighting is used to downweight the effects of outliers. EC50 or IC50 values are calculated from the retransformed values. JMP software (SAS Institute, Inc.) is used for both one-way analysis of variance and non-linear dose response analyses in both single dose and dose response studies.
(vi) Reference Compounds: • Progesterone and trimegestone are reference progestins and RU486 was the reference antiprogestin. All reference compounds are run in full dose response curves and the EC50 or IC50 values calculated.

[2] = Solubility in dimethylsulfoxide (observation during characterisation); type: physicochemical
Protocol: A 5-L round-bottomed flask equipped with a mechanical stirrer and a reflux condenser was charged with the isolated solid (16.5 g) and acetone (2700 mL) was added in portions via the condenser while the suspension was heated to reflux. The reflux condenser was replaced with a regular one and acetone was distilled off. After distilling 2130 mL of acetone, the formed slurry was cooled to room temperature, stirred overnight, and filtered on a sintered-glass funnel to give a dark-yellow, crystalline, sandy solid. The filtered solid was dried at 40° C. in vacuo to give 12.5 g (76% recrystallization yield; 38% total yield) of 5-(4,4-dimethyl-2-thioxo-1,4-dihydro-2H-3,1-benzoxazin-6-yl)-1-methyl-1H-pyrrole-2-carbothioamide. LC purity: 95.94%; 1.65% NSP-989; rrt 0.88. LC-MS: 331 (M^+); impurity 297 (NSP-989). Mp: particles of various shapes; small particles melted 210-215° C.; next 218-220° C.; final melt 223-226° C. IR (KBr, cm^−1): 3375, 3269, 3165, 2211, 1624, 1610, 1540, 1526, 1466, 1370, 1294, 1261, 1186, 1114, 1086, 959, 880, 822, 779. ^1H NMR (DMSO-d6, ppm): 12.28 (s, 1H), 9.22 (s, 1H, S═CNH2), 8.97 (s, 1H, S═CNH2), 7.41 (d, 1H, J=7.05 Hz), 7.40 (s, 1H), 7.12 (d, 1H, J=8.85 Hz), 6.72 (d, 1H, J=3.9 Hz), 6.23 (d, 1H, J=3.9 Hz), 3.83 (s, 3H), 1.68 (s, 6H).

[3] = test system: alkaline phosphatase activity in T47D cells; assay: T47D alkaline phosphatase assay (antiprogestin/antagonist mode, in the presence of 1 nM progesterone); type: cell-based; settings: Homo sapiens, reference antiprogestin, three independent experiments (Exp 1-3), read-out: Estimated IC50
Protocol: 0.1 M Tris-HCl, pH 9.8 containing 4 mM p-nitrophenyl phosphate (Sigma). […] To each well in a 96-well plate (Falcon, Becton Dickinson Labware), 180 μL of diluted cell suspension was added. Twenty μL of reference or test compounds diluted in the culture medium was then added to each well. When testing for progestin antagonist activity, reference antiprogestins or test compounds were added in the presence of 1 nM progesterone. The cells were incubated at 37° C. in a 5% CO2/humidified atmosphere for 24 hours. […] The plates were shaken in a titer plate shaker for 15 minutes. Then 150 μL of assay buffer II was added to each well. […] Square root-transformed data are used for analysis of variance and nonlinear dose response curve fitting for both agonist and antagonist modes. Huber weighting is used to downweight the effects of outliers. EC50 or IC50 values are calculated from the retransformed values.

Cn1c(C(N)=S)ccc1-c1ccc2c(c1)C(C)(C)OC(=S)N2 [Compound 1, 5-(4,4-dimethyl-2-thioxo-1,4-dihydro-2H-3,1-benzoxazin-6-yl)-1-methyl-1H-pyrrole-2-carbothioamide]
Emax [1]: 60% | EC50 [1]: 200 pM | Solubility in dimethylsulfoxide (DMSO) [2]: sparingly soluble

Cn1c(C(N)=S)ccc1-c1ccc2c(c1)C(C)(C)OC(=O)N2 [Compound 2, 5-(4,4-dimethyl-2-oxo-1,4-dihydro-2H-3,1-benzoxazin-6-yl)-1-methyl-1H-pyrrole-2-carbothioamide]
Emax [1]: 72% | EC50 [1]: 1900 pM

CC#C[C@]1(O)CC[C@H]2[C@@H]3CCC4=CC(=O)CCC4=C3[C@@H](c3ccc(N(C)C)cc3)C[C@@]21C [RU486]
IC50 [3]: 103 pM and 120 pM
